Consider 16 molecules from US11964971B2, “Methods and compositions for modulating splicing” (Skyhawk Therapeutics, Inc., priority 2019, dated 2024).

One data set relates to SMN protein. Nature of the data set: SMN protein assay (MSD) in SMA patient fibroblasts (GM03813). Type of data set: cell-based, human. As to the method:
Compounds are tested on spinal muscular atrophy (SMA) patient fibroblasts (GM03813, Coriell) at doses ranging from 2.5 μM to 0.6 nM. 7000 cells/well are seeded in 96-well plates. Compounds are incubated for 48 hours and the cells were lysed with 100 μL of lysis buffer. 20 μL of lysate is used for SMN protein measurement by Mesoscale Discovery (MSD) assay developed by PharmOptima (Michigan). A standard curve prepared with SMN protein ranging from […] is used in each MSD plate to calculate the absolute SMN protein amount in each sample.

For data set [1], the system named is MDR1-MDCK cell monolayers. The conditions noted are these: dog, MDCK-MDR1, 120 min, 5 μM, pH 7.4.
For the next data set, the system named is MDR1. Nature of the data set: in vitro. Conditions: dog; for Papp A→B at 120 min, 5 μM: MDCK-MDR1, pH 7.4, MDCK-MDR1: Papp A-B (10^−6, cm/s); for Papp B→A at 120 min, 5 μM: MDCK-MDR1, pH 7.4, MDCK-MDR1: Papp B-A (10^−6, cm/s).
The next data set has as its system MDR1 (P-gp). The data set is described as follows: MDCK-MDR1 permeability assay, blood-brain-barrier penetration potential. The conditions noted are these: dog, MDCK-MDR1, pH 7.4, MDCK-MDR1 Efflux Ratio.

SMILES strings stand for the structures.

For orientation: EC50 means the midpoint of the concentration-response curve. A lower EC50 goes with a more potent agent. The term Papp A→B denotes how fast a substance crosses the layer from the apical side. The Papp B→A is how fast a substance crosses the layer from the basolateral side. The efflux ratio is a quotient of directional permeabilities that is used to spot active efflux.

As to `CN(C)C(=O)c1cc(O)c(-c2cnc(N(C)[C@H]3C[C@@H]4CCC(N4)[C@H]3F)cn2)cc1F` (single isomer, unassigned) [Compound 14E2], in the data set with SMN protein, the concentration giving a half-maximal response (EC50) was in the range of 501 to 10000 nM. Further, in data set [1], the “MDCK-MDR1: % Recov A-B (%)” value worked out at 87% and the “MDCK-MDR1: % Recov B-A (%)” value is 88%. In the data set on MDR1, this molecule yielded an apparent permeability from apical to basolateral (Papp A→B) at 120 min, 5 μM of 0.91 ×10⁻⁶ cm/s and a Papp B→A at 120 min, 5 μM of 59.1 ×10⁻⁶ cm/s. Moreover, in the data set on MDR1 (P-gp), the efflux ratio at 120 min, 5 μM was 65.
Regarding `CNC(=O)c1cc(O)c(-c2cnc(N(C)[C@@H]3CC4CC[C@H](N4)[C@@H]3F)cn2)cc1F` (single isomer, unassigned) [Compound 15E1], the EC50 with SMN protein is 501 to 10000 nM. Besides, in data set [1], the “MDCK-MDR1: % Recov A-B (%)” value was 86% and the “MDCK-MDR1: % Recov B-A (%)” value was 97%. In the data set with MDR1, this molecule displayed a Papp A→B at 120 min, 5 μM of 2.74 ×10⁻⁶ cm/s and a Papp B→A at 120 min, 5 μM of 64.4 ×10⁻⁶ cm/s. Further, the efflux ratio at 120 min, 5 μM with MDR1 (P-gp) came to 24.
As to `CNC(=O)c1cc(O)c(-c2cnc(N(C)[C@H]3C[C@@H]4CCC(N4)[C@H]3F)cn2)cc1F` (single isomer, unassigned) [Compound 15E2], the EC50 in the data set with SMN protein lay within 501 to 10000 nM. For the same molecule, in data set [1], the “MDCK-MDR1: % Recov A-B (%)” value is listed as 85% and the “MDCK-MDR1: % Recov B-A (%)” value stood at 86%. In the data set with MDR1, this molecule displayed a Papp A→B at 120 min, 5 μM of 2.66 ×10⁻⁶ cm/s and a basolateral-to-apical permeability (Papp B→A) at 120 min, 5 μM of 68.8 ×10⁻⁶ cm/s. The efflux ratio at 120 min, 5 μM with MDR1 (P-gp) was 26.
In the data set with SMN protein, `CN(c1cnc(-c2cc(F)c(-c3cnn(C)c3)cc2O)cn1)[C@H]1C[C@@H]2CCC(N2)[C@H]1F` (single isomer, unassigned) [Compound 17E1] yielded an EC50 of 0.01 to 15 nM. In data set [1], the “MDCK-MDR1: % Recov A-B (%)” value is 31% and the “MDCK-MDR1: % Recov B-A (%)” value was determined as 74%. In the data set with MDR1, the Papp A→B at 120 min, 5 μM came to 4.22 ×10⁻⁶ cm/s and the apparent permeability from basolateral to apical (Papp B→A) at 120 min, 5 μM came out at 18.6 ×10⁻⁶ cm/s. In addition, in the data set on MDR1 (P-gp), the efflux ratio at 120 min, 5 μM was determined as 4.
With `CN(c1cnc(-c2cc3ncn(CC(F)(F)F)c(=O)c3cc2O)cn1)[C@@H]1CC2CCC[C@H](N2)[C@@H]1F` (single isomer, unassigned) [Compound 18E1], in the data set with SMN protein, the EC50 lay in the range of 501 to 10000 nM. In data set [1], the “MDCK-MDR1: % Recov A-B (%)” value is recorded as 78% and the “MDCK-MDR1: % Recov B-A (%)” value is reported as 86%. In the data set on MDR1, this molecule came in with a Papp A→B at 120 min, 5 μM of 0.92 ×10⁻⁶ cm/s and a Papp B→A at 120 min, 5 μM of 65.1 ×10⁻⁶ cm/s. The efflux ratio at 120 min, 5 μM in the data set on MDR1 (P-gp) was 71.
For `CN(c1cnc(-c2cc3ccc(OCF)nc3cc2O)cn1)[C@@H]1CC2CC[C@H](N2)[C@@H]1F` (single isomer, unassigned) [Compound 19E1], in the data set with SMN protein, the EC50 fell in the range of 501 to 10000 nM. For the same molecule, in data set [1], the “MDCK-MDR1: % Recov A-B (%)” value was 24% and the “MDCK-MDR1: % Recov B-A (%)” value was determined as 57%. Moreover, in the data set with MDR1, the apical-to-basolateral permeability (Papp A→B) at 120 min, 5 μM was found to be 2.13 ×10⁻⁶ cm/s and the Papp B→A at 120 min, 5 μM was 18.6 ×10⁻⁶ cm/s. For the same molecule, the efflux ratio at 120 min, 5 μM in the data set with MDR1 (P-gp) worked out at 9.
In the case of `CN(c1cnc(-c2cc3ccc(OCF)nc3cc2O)cn1)[C@H]1C[C@@H]2CCC(N2)[C@H]1F` (single isomer, unassigned) [Compound 19E2], the EC50 in the data set with SMN protein lay within 501 to 10000 nM. Besides, in data set [1], the “MDCK-MDR1: % Recov A-B (%)” value is on record as 28% and the “MDCK-MDR1: % Recov B-A (%)” value amounted to 62%. In the data set with MDR1, the Papp A→B at 120 min, 5 μM turned out to be 2.81 ×10⁻⁶ cm/s and the basolateral-to-apical permeability (Papp B→A) at 120 min, 5 μM was found to be 17.1 ×10⁻⁶ cm/s. The efflux ratio at 120 min, 5 μM in the data set on MDR1 (P-gp) amounted to 6.
`CN(c1cnc(-c2cc3oc(C(=O)N4CCC4)cc3cc2O)cn1)[C@@H]1CC2CC[C@H](N2)[C@@H]1F` (single isomer, unassigned) [Compound 20E1]: the EC50 with SMN protein is 501 to 10000 nM. Further, in data set [1], the “MDCK-MDR1: % Recov A-B (%)” value worked out at 83% and the “MDCK-MDR1: % Recov B-A (%)” value is on record as 101%. Besides, in the data set with MDR1, the Papp A→B at 120 min, 5 μM was 2.71 ×10⁻⁶ cm/s and the basolateral-to-apical permeability (Papp B→A) at 120 min, 5 μM turned out to be 56.4 ×10⁻⁶ cm/s. The efflux ratio at 120 min, 5 μM in the data set on MDR1 (P-gp) came out at 21.
In the case of `CN(c1cnc(-c2cc3oc(C(=O)N4CCC4)cc3cc2O)cn1)[C@H]1C[C@@H]2CCC(N2)[C@H]1F` (single isomer, unassigned) [Compound 20E2], in the data set on SMN protein, the concentration for a half-maximal effect (EC50) was in the range of 501 to 10000 nM. Besides, in data set [1], the “MDCK-MDR1: % Recov A-B (%)” value is 75% and the “MDCK-MDR1: % Recov B-A (%)” value stood at 79%. In the data set on MDR1, the Papp A→B at 120 min, 5 μM came out at 0.94 ×10⁻⁶ cm/s and the Papp B→A at 120 min, 5 μM turned out to be 41.9 ×10⁻⁶ cm/s. Moreover, in the data set on MDR1 (P-gp), the efflux ratio at 120 min, 5 μM came to 45.
In turn, `CN(c1cnc(-c2cc(F)c(-n3ccnn3)cc2O)cn1)[C@@H]1CC2CC[C@H](N2)[C@@H]1F` (single isomer, unassigned) [Compound 21E1] came in with a concentration giving a half-maximal response (EC50) in the data set on SMN protein of 501 to 10000 nM. Also, in data set [1], the “MDCK-MDR1: % Recov A-B (%)” value amounted to 83% and the “MDCK-MDR1: % Recov B-A (%)” value was 91%. In the data set on MDR1, this molecule gave a Papp A→B at 120 min, 5 μM of 8.48 ×10⁻⁶ cm/s and an apparent permeability from basolateral to apical (Papp B→A) at 120 min, 5 μM of 43.5 ×10⁻⁶ cm/s. Further, the efflux ratio at 120 min, 5 μM in the data set on MDR1 (P-gp) stood at 5.
In turn, `CN(c1cnc(-c2cc(F)c(-n3ccnn3)cc2O)cn1)[C@H]1C[C@@H]2CCC(N2)[C@H]1F` (single isomer, unassigned) [Compound 21E2] gave an EC50 in the data set with SMN protein of 501 to 10000 nM. In data set [1], the “MDCK-MDR1: % Recov A-B (%)” value is on record as 78% and the “MDCK-MDR1: % Recov B-A (%)” value stood at 85%. Besides, in the data set on MDR1, the Papp A→B at 120 min, 5 μM came out at 11.3 ×10⁻⁶ cm/s and the basolateral-to-apical permeability (Papp B→A) at 120 min, 5 μM was found to be 48 ×10⁻⁶ cm/s. The efflux ratio at 120 min, 5 μM with MDR1 (P-gp) was 4.
`CN(c1cnc(-c2ccc(-c3cn[nH]c3)cc2O)cn1)[C@@H]1CC2CC[C@H](N2)[C@H]1F` (single isomer, unassigned) [Compound 27E1] gave a concentration for a half-maximal effect (EC50) in the data set with SMN protein of 501 to 10000 nM. Moreover, in data set [1], the “MDCK-MDR1: % Recov A-B (%)” value stood at 77% and the “MDCK-MDR1: % Recov B-A (%)” value was found to be 79%. In the data set with MDR1, this molecule showed an apical-to-basolateral permeability (Papp A→B) at 120 min, 5 μM of 3.87 ×10⁻⁶ cm/s and a basolateral-to-apical permeability (Papp B→A) at 120 min, 5 μM of 28.7 ×10⁻⁶ cm/s. In addition, the efflux ratio at 120 min, 5 μM in the data set on MDR1 (P-gp) worked out at 7.
Turning to `CN(c1cnc(-c2cc(F)c(-c3cnn(CF)c3)cc2O)cn1)[C@@H]1CC2CC[C@H](N2)[C@@H]1F` (single isomer, unassigned) [Compound 29E1], the EC50 in the data set with SMN protein was in the range of 16 to 50 nM. Further, in data set [1], the “MDCK-MDR1: % Recov A-B (%)” value worked out at 38% and the “MDCK-MDR1: % Recov B-A (%)” value stood at 56%. For the same molecule, in the data set on MDR1, the Papp A→B at 120 min, 5 μM was determined as 6.29 ×10⁻⁶ cm/s and the Papp B→A at 120 min, 5 μM came out at 17.2 ×10⁻⁶ cm/s. Moreover, the efflux ratio at 120 min, 5 μM in the data set on MDR1 (P-gp) came out at 3.
The molecule `COc1cc(-c2cc(O)c(-c3cnc(N(C)[C@@H]4CC5CC[C@H](N5)[C@@H]4F)cn3)cc2F)ccn1` (single isomer, unassigned) [Compound 30E1] gave a concentration for a half-maximal effect (EC50) in the data set with SMN protein of 501 to 10000 nM. In data set [1], the “MDCK-MDR1: % Recov A-B (%)” value turned out to be 13% and the “MDCK-MDR1: % Recov B-A (%)” value was determined as 49%. In the data set on MDR1, this molecule displayed a Papp A→B at 120 min, 5 μM of 3.95 ×10⁻⁶ cm/s and a Papp B→A at 120 min, 5 μM of 5.24 ×10⁻⁶ cm/s. Besides, the efflux ratio at 120 min, 5 μM with MDR1 (P-gp) came to 1.
For the molecule `COc1cc(-c2cc(O)c(-c3cnc(N(C)[C@H]4C[C@@H]5CCC(N5)[C@H]4F)cn3)cc2F)ccn1` (single isomer, unassigned) [Compound 30E2], the EC50 in the data set on SMN protein lay in the range of 51 to 100 nM. For the same molecule, in data set [1], the “MDCK-MDR1: % Recov A-B (%)” value is given as 10% and the “MDCK-MDR1: % Recov B-A (%)” value is 37%. In the data set on MDR1, this molecule yielded a Papp A→B at 120 min, 5 μM of 2.55 ×10⁻⁶ cm/s and an apparent permeability from basolateral to apical (Papp B→A) at 120 min, 5 μM of 4.14 ×10⁻⁶ cm/s. Moreover, in the data set with MDR1 (P-gp), the efflux ratio at 120 min, 5 μM stood at 2.
Consider `COc1cc(-c2cc(O)c(-c3cnc(N(C)[C@@H]4CC5CC[C@H](N5)[C@@H]4F)cn3)cc2F)cc(F)n1` (single isomer, unassigned) [Compound 31E1], for which, in the data set on SMN protein, the EC50 is 501 to 10000 nM. Also, in data set [1], the “MDCK-MDR1: % Recov A-B (%)” value turned out to be 58% and the “MDCK-MDR1: % Recov B-A (%)” value was found to be 65%. In the data set on MDR1, the apical-to-basolateral permeability (Papp A→B) at 120 min, 5 μM stood at 0.48 ×10⁻⁶ cm/s and the Papp B→A at 120 min, 5 μM was 0.8 ×10⁻⁶ cm/s. The efflux ratio at 120 min, 5 μM in the data set with MDR1 (P-gp) came to 2.
